Results taken from patent US10513534B2, “2′-chloro nucleoside analogs for HCV infection” (priority 2012, dated 2019).
Like-named read-outs stand apart in the source and are kept apart here.

What was measured:
HCV genotype 1b replicon = assay: HCV replicon assay (Zluc luciferase); type: cell-based; conditions: Zluc cells, 72 hours, read-out: HCV Replicon EC50
Method: Huh-7-derived cell line (Zluc) that harbors an HCV genotype 1b replicon and a luciferase reporter gene was grown in Dulbecco's Modified Eagle Medium (DMEM) supplemented with 10% fetal bovine serum, 2 mM GlutaMAX, 1% MEM nonessential amino acids, 100 IU/mL penicillin, 100 μg/mL streptomycin, and 0.5 mg/mL Geneticin® (G418). For dose response testing the cells were seeded in 96-well plates at 7.5×10^3 cells per well in a volume of 50 μL, and incubated at 37° C./5% CO2. Drug solutions were made up freshly in Huh-7 media as 2× stocks. Ten additional 5-fold dilutions were prepared from these stocks in DMEM without G418. At least three hours after Zluc cells were seeded, drug treatment was initiated by adding 50 μL of drug dilutions to the plates in duplicate. Final concentrations of drug ranged from 100 μM to […]. Cells were then incubated at 37° C./5% CO2. Alternatively, compounds were tested at two concentrations (1 μM and 10 μM). […] For this, media was removed from the plates via gentle tapping. Fifty microliters of ONE-glo luciferase assay reagent was added to each well. The plates were shaken gently for 3 min at room temperature and luminescence was measured on a Victor^3 V 1420 multilabel counter (Perkin Elmer) with a 1 second read time using a 700 nm cut-off filter. The EC50 values were calculated from dose response curves from the resulting best-fit equations determined by Microsoft Excel and XLfit 4.1 software. When screening at two fixed concentrations, the results were expressed as % inhibition at 1 μM and 10 μM.

in vitro = conditions: human
[1] = Liver triphosphate pharmacokinetics after single oral dose in CD-1 mice; type: in vivo; design: key: + ≤ 15; 15 < ++ ≤ 50; 50 < +++ ≤ 100; 100 < ++++; BLQ = below limit of quantitation; conditions: single oral dose 10 mg/kg in PEG 200;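 as to Ms Liver TP AUC: pmol·h/g liver normalized to a 1 µmol/kg dose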;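 as to Ms Liver TP Cmax: pmol/g liver normalized to a 1 µmol/kg dose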
Method: Internal standard solution was added to the homogenate followed by neutralization with 20% ammonium hydroxide solution and addition of 500 μL 1% formic acid. The tissue samples were extracted by weak anion exchange solid phase extraction (SPE). Post extraction, the eluates were evaporated under nitrogen, followed by reconstitution before injection onto the LC-MS/MS system.

[2] = Plasma nucleoside pharmacokinetics after single oral dose in CD-1 mice; type: in vivo; conditions: single oral dose 10 mg/kg in PEG 200;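 as to Ms Plasma nucleoside AUC: pmol·h/mL plasma normalized to a 1 µmol/kg dose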
Method: Plasma samples were analyzed for nucleoside by LC-MS/MS. The internal standard (IS) was either 2′-MeG-D3 or tiapride. For protein precipitation and extraction, each plasma sample (50 μL) was treated with 500 μL of 0.2% formic acid in acetonitrile and 20 μL of the internal standard working solution. After vortexing and centrifugation, 500 μL of the sample extracts were transferred to a new plate, dried under N2 at ˜28° C. and reconstituted with 75 μL of 0.2% FA in water. The extracts were chromatographed on an Aquasil C18 column using a gradient system of 0.2% formic acid in water and acetonitrile. The analytes were detected and quantified by tandem mass spectrometry in positive ion mode on an MDS Sciex API5000 equipped with a Turbo Ionspray® interface. The calibration range was 0.500 (LLOQ) to 200 ng/mL in mouse plasma.

Zluc cells = assay: Cytotoxicity evaluation, CellTiter-Blue Cell Viability Assay; conditions: Zluc cells, CellTiter-Blue

Compound	EC50 (HCV genotype 1b replicon; Hepatitis C virus, 72 h)	CC50 (in vitro)	Ms Liver TP AUC [1]	Ms Liver TP Cmax [1]	Ms Plasma nucleoside AUC [2]	Ms Plasma nucleoside Cmax [2]	EC50 (HCV genotype 1b replicon)	CC50 (Zluc cells)
CCOC(=O)NCCC(C)(C)C(=O)SCCOP(=O)(NCc1ccccc1)OC[C@H]1O[C@@H](n2ccc(=O)[nH]c2=O)[C@](C)(Cl)[C@@H]1O (mixture of isomers) [Compound 51 Mixture of P-Diastereoisomers]	0.25 to 1 µM	> 50 µM						
CCOc1nc(N)nc2c1ncn2[C@@H]1O[C@H](COP(=O)(N[C@@H](C)C(=O)OC(C)C)Oc2ccccc2)[C@@H](O)[C@@]1(C)Cl (single isomer, unassigned) [Compound 17ii Diastereomer 1]	1 to 10 µM	> 50 µM	BLQ	BLQ				
CC(C)OC(=O)[C@H](C)NP(=O)(OC[C@H]1O[C@@H](n2cnc3c(=O)[nH]c(N)nc32)[C@](C)(Cl)[C@@H]1O)Oc1ccccc1 (single isomer, unassigned) [Compound 21ii Diastereomer 1]	> 10 µM	> 50 µM						
CC(C)OP1(=O)OC[C@H]2O[C@@H](n3ccc(=O)[nH]c3=O)[C@](C)(Cl)[C@@H]2O1 (single isomer, unassigned) [Compound 37 Diastereomer 1]	1 to 10 µM	> 50 µM	++++ (1500 < ++++)	++++ (100 < ++++)	+++ (500 < +++ ≤ 1500)	+++ (50 < +++ ≤ 100)		
C[C@H](NP(=O)(OC[C@H]1O[C@@H](n2ccc(=O)[nH]c2=O)[C@](C)(Cl)[C@@H]1O)Oc1ccccc1)C(=O)OCC(C)(C)C (single isomer, unassigned) [Compound 42ii Single Diastereoisomer]	< 0.25 µM	> 50 µM						
CC(C)OC(=O)C(C)NP(=O)(OCCSC(=O)C(C)(C)C)OC[C@H]1O[C@@H](n2ccc(=O)[nH]c2=O)[C@](C)(Cl)[C@@H]1O (single isomer, unassigned) [Compound 43ii Diastereomer 2]	0.25 to 1 µM	> 50 µM						
CC(C)(CO)C(=O)SCCOP1(=O)OC[C@H]2O[C@@H](n3ccc(=O)[nH]c3=O)[C@](C)(Cl)[C@@H]2O1 (single isomer, unassigned) [Compound 46 Single Diastereoisomer]	< 0.25 µM	> 50 µM						
CC(C)OC(=O)[C@H](C)NP(=O)(OC[C@H]1O[C@@H](n2ccc(N)nc2=O)[C@](C)(Cl)[C@@H]1O)Oc1ccccc1 (single isomer, unassigned) [Compound 56ii Diastereomer 1]	> 10 µM	> 50 µM						
CCCCOC(=O)[C@@H](C)NP(=O)(OC[C@H]1O[C@@H](n2ccc(=O)[nH]c2=O)[C@](C)(Cl)[C@@H]1O)Oc1ccccc1 (single isomer, unassigned) [Compound 202i Diastereomer 2]			++++ (1500 < ++++)	++++ (100 < ++++)	++++ (1500 < ++++)	++++ (100 < ++++)	0.25 to 1 µM	> 50 µM
C[C@@H](NP(=O)(OC[C@H]1O[C@@H](n2ccc(=O)[nH]c2=O)[C@](C)(Cl)[C@@H]1O)Oc1ccccc1)C(=O)OCc1ccccc1 (single isomer, unassigned) [Compound 205i Diastereomer 2]			++++ (1500 < ++++)	++++ (100 < ++++)	++++ (1500 < ++++)	+++ (50 < +++ ≤ 100)	0.25 to 1 µM	> 50 µM
CC(C)OC(=O)[C@H](C)NP(=O)(OC[C@H]1O[C@@H](n2cc(F)c3c(N)ncnc32)[C@](C)(Cl)[C@@H]1O)Oc1ccccc1 (single isomer, unassigned) [Compound 207ii Diastereomer 1]	> 10 µM	> 50 µM						
CC(C)OC(=O)[C@H](C)NP(=O)(OC[C@H]1O[C@@H](n2ccc3c(N)ncnc32)[C@](C)(Cl)[C@@H]1O)Oc1ccccc1 (single isomer, unassigned) [Compound 208ii Diastereomer 1]	> 10 µM	> 50 µM	BLQ	BLQ				
CCCCOC(=O)[C@H](C)NP(=O)(OC[C@H]1O[C@@H](n2ccc(=O)[nH]c2=O)[C@](C)(Cl)[C@@H]1O)Oc1ccccc1 (single isomer, unassigned; diastereomer 1) [Compound 202ii Diastereomer 1]			+++ (500 < +++ ≤ 1500)	++++ (100 < ++++)	++++ (1500 < ++++)	++++ (100 < ++++)	< 0.25 µM	> 50 µM
CCOC(=O)[C@H](C)NP(=O)(OC[C@H]1O[C@@H](n2ccc(=O)[nH]c2=O)[C@](C)(Cl)[C@@H]1O)Oc1ccccc1 (single isomer, unassigned; diastereomer 1) [Compound 203ii Diastereomer 1]			+++ (500 < +++ ≤ 1500)	+++ (50 < +++ ≤ 100)	+++ (500 < +++ ≤ 1500)	+++ (50 < +++ ≤ 100)	0.25 to 1 µM	> 50 µM
CCOC(=O)[C@H](CC(C)C)NP(=O)(OC[C@H]1O[C@@H](n2ccc(=O)[nH]c2=O)[C@](C)(Cl)[C@@H]1O)Oc1ccccc1 (single isomer, unassigned; diastereomer 1) [Compound 204ii Diastereomer 1]			++ (150 < ++ ≤ 500)	++ (15 < ++ ≤ 50)	+++ (500 < +++ ≤ 1500)	+++ (50 < +++ ≤ 100)	1 to 10 µM	> 50 µM
CCCCOC(=O)[C@H](C)NP(=O)(OC[C@H]1O[C@@H](n2ccc(=O)[nH]c2=O)[C@](C)(Cl)[C@@H]1O)Oc1ccccc1 (single isomer, unassigned; diastereomer 2) [Compound 202ii Diastereomer 2]			+++ (500 < +++ ≤ 1500)	+++ (50 < +++ ≤ 100)	++++ (1500 < ++++)	++++ (100 < ++++)	< 0.25 µM	> 50 µM
CCOC(=O)[C@H](C)NP(=O)(OC[C@H]1O[C@@H](n2ccc(=O)[nH]c2=O)[C@](C)(Cl)[C@@H]1O)Oc1ccccc1 (single isomer, unassigned; diastereomer 2) [Compound 203ii Diastereomer 2]			++ (150 < ++ ≤ 500)	++ (15 < ++ ≤ 50)	+++ (500 < +++ ≤ 1500)	+++ (50 < +++ ≤ 100)	0.25 to 1 µM	> 50 µM
CCOC(=O)[C@H](CC(C)C)NP(=O)(OC[C@H]1O[C@@H](n2ccc(=O)[nH]c2=O)[C@](C)(Cl)[C@@H]1O)Oc1ccccc1 (single isomer, unassigned; diastereomer 2) [Compound 204ii Diastereomer 2]			++ (150 < ++ ≤ 500)	++ (15 < ++ ≤ 50)	++++ (1500 < ++++)	++++ (100 < ++++)	0.25 to 1 µM	> 50 µM
C[C@@]1(Cl)[C@H](O)[C@@H](CO)O[C@H]1n1cnc2c(N)ncnc21 [Compound 302, 2′-C-Chloro-2′-C-methyladenosine]	> 10 µM	> 50 µM						
C[C@@]1(Cl)[C@H](O)[C@@H](CO)O[C@H]1n1cc(F)c2c(N)ncnc21 [Compound 303]	> 10 µM	> 50 µM						
CCOc1nc(N)nc2c1ncn2[C@@H]1O[C@H](CO)[C@@H](O)[C@@]1(C)Cl [Compound 304]	> 10 µM	> 50 µM						
C[C@@]1(Cl)[C@H](O)[C@@H](CO)O[C@H]1c1ccc2c(N)ncnn12 [Compound 305]	> 10 µM	> 50 µM						
C[C@@]1(Cl)[C@H](O)[C@@H](CO)O[C@H]1n1ccc(N)nc1=O [Compound 306]	> 10 µM	> 50 µM						
